Assay results taken from patent publication US8143243B2, “Compounds for the treatment of hepatitis C” (Bristol-Myers Squibb Company, priority 2007, dated 2012).
pEC50, pIC50: −log10 of the molar value. Read-outs that look alike come from different tables or passages of the source.

Legend:
[1] = target: T1, HCV NS5B (Hepatitis C virus genotype 1b, UniProt Q9WMX2); experiment: HCV NS5B RdRp enzyme assay (standard / modified); format: biochemical
T1 construct: The protein was expressed with an 18 amino acid C-terminal truncation to enhance the solubility; made in house; host or cells: E. coli BL21 (DE3)
T1 sequence (Q9WMX2 2420-2992): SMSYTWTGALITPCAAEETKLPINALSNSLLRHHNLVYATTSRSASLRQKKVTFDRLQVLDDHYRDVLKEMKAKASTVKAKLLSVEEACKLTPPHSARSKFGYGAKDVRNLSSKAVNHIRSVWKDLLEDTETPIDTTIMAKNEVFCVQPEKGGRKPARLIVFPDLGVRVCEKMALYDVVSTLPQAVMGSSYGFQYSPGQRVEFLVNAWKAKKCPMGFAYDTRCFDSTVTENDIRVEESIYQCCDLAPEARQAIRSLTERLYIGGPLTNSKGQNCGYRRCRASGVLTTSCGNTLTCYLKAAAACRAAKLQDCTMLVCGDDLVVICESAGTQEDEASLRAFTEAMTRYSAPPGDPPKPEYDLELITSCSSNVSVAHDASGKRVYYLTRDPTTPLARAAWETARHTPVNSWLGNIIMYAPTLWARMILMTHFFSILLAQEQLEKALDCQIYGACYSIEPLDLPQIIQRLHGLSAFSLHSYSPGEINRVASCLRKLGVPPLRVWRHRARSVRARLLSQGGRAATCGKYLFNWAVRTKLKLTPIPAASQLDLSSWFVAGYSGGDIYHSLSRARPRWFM
How it was run: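 SPA detection of 3H-UTP (0.29 μM) incorporation by C-terminally truncated (18 aa) genotype 1b NS5B from E. coli, on polyA/biotin-oligo-dT12 at 30° C, pH 7.5 Hepes, 2% DMSO. Modified format: 14 nM enzyme, 0.2 nM template, 20 nM primer prebound to beads, 4 h; standard: 28 nM, 6 nM, 180 nM free primer, 60 min. Seven-point IC50 fit.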

[2] = test system: HCV replicon cells; experiment: HCV replicon FRET / luciferase assay; format: cell-based; conditions: Hepatitis C virus
How it was run: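 HCV replicon cells (with or without Renilla luciferase reporter) were plated with titrated compounds at 37 °C. After Alamar blue toxicity reading, cells were lysed in reagent containing 20 μM EDANS/DABCYL NS3 protease FRET peptide and 150 mM NaCl, read kinetically at 340/490 nm, or assayed by Dual-Glo luciferase.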

[3] = HCV RdRp genotype 1b enzyme, read-out: IC50
[4] = HCV replicon cells, FRET or luciferase readout, read-out: EC50

Row | SMILES | pIC50 [1, 3] | pEC50 [2, 4] | pIC50 [1] | pEC50 [2]
1 | CCn1ncc(C(=O)N2CCOCC2)c1C1=Cc2cc(OC)ccc2-c2c(C3CCCCC3)c3ccc(C(=O)N4CCOCC4)cc3n2C1 | < 6.30 | 6.30 to 9.00 | – | –
2 | COC[C@@H]1CN(C(=O)c2cnn(C)c2C2=Cc3cc(OC)ccc3-c3c(C4CCCCC4)c4ccc(C(=O)NS(=O)(=O)C5CCCC5)cc4n3C2)CCO1 | 6.30 to 9.00 | 6.30 to 9.00 | – | –
3 | CCC(C)S(=O)(=O)NC(=O)c1ccc2c(C3CCCCC3)c3n(c2c1)CC(c1c(C(=O)N2C4CCC2CN(C)C4)cnn1C)=Cc1cc(OC)ccc1-3 (stereo not shown) | – | – | 6.30 to 9.00 | 6.30 to 9.00
4 | COc1ccc2c(c1)C=C(c1c(C(=O)N3CCN(C(C)C)CC3)cnn1C)Cn1c-2c(C2CCCCC2)c2ccc(C(=O)NS(=O)(=O)N3CCOCC3)cc21 | 6.30 to 9.00 | 6.30 to 9.00 | – | –
5 | COc1ccc2c(c1)C=C(c1c(C(=O)N3[C@@H]4CC[C@H]3C[C@@](C)(O)C4)cnn1C)Cn1c-2c(C2CCCCC2)c2ccc(C(=O)NS(=O)(=O)C(C)C)cc21 | – | – | 6.30 to 9.00 | 6.30 to 9.00
6 | COc1ccc2c(c1)C=C(c1c(C(=O)N3[C@@H]4CC[C@H]3C[C@@](C)(O)C4)cnn1C)Cn1c-2c(C2CCCCC2)c2ccc(C(=O)NS(=O)(=O)N3CCOCC3)cc21 | – | – | 6.30 to 9.00 | 6.30 to 9.00
7 | CCn1nc(C)c(C(=O)N2CC3CCC(C2)N3C)c1C1=Cc2cc(OC)ccc2-c2c(C3CCCCC3)c3ccc(C(=O)NS(=O)(=O)C(C)C)cc3n2C1 | – | – | 6.30 to 9.00 | 6.30 to 9.00
8 | CCOC(=O)N1CCN(C(=O)c2cnn(C)c2C2=Cc3cc(OC)ccc3-c3c(C4CCCCC4)c4ccc(C(=O)NS(=O)(=O)N5CCOCC5)cc4n3C2)CC1 | 6.30 to 9.00 | 6.30 to 9.00 | – | –
9 | COc1ccc2c(c1)C=C(c1c(C(=O)N3CCN4CCC3CC4)cnn1C)Cn1c-2c(C2CCCCC2)c2ccc(C(=O)NS(=O)(=O)N3CCOCC3)cc21 | 6.30 to 9.00 | 6.30 to 9.00 | – | –
10 | COc1ccc2c(c1)C=C(c1c(C(=O)O)c(C)nn1C)Cn1c-2c(C2CCCCC2)c2ccc(C(=O)NS(=O)(=O)CC(C)C)cc21 | 6.30 to 9.00 | < 7.40 | – | –
11 | COc1ccc2c(c1)C=C(c1c(C(=O)N3CC4CCC(C3)N4C)cnn1CC(F)(F)F)Cn1c-2c(C2CCCCC2)c2ccc(C(=O)NS(=O)(=O)C(C)C)cc21 | – | – | 6.30 to 9.00 | 6.30 to 9.00
12 | COc1ccc2c(c1)C=C(c1c(C(=O)N3C[C@@H](C)O[C@@H](C)C3)cnn1C(C)(C)C)Cn1c-2c(C2CCCCC2)c2ccc(C(=O)NS(=O)(=O)C(C)C)cc21 | 6.30 to 9.00 | 6.30 to 9.00 | – | –
13 | CCC(C)S(=O)(=O)NC(=O)c1ccc2c(C3CCCCC3)c3n(c2c1)CC(c1c(C(=O)N2C[C@@H](C)O[C@@H](C)C2)cnn1C)=Cc1cc(OC)ccc1-3 (stereo partly shown) | 6.30 to 9.00 | 6.30 to 9.00 | – | –
14 | COc1ccc2c(c1)C=C(c1c(C(=O)N3C[C@@H](C)O[C@@H](C)C3)c(C)nn1C)Cn1c-2c(C2CCCCC2)c2ccc(C(=O)NS(=O)(=O)C(C)C)cc21 | 6.30 to 9.00 | 6.30 to 9.00 | – | –
15 | COc1ccc2c(c1)C=C(c1c(C(=O)N3CCC(N(C)C)C3)cnn1C)Cn1c-2c(C2CCCCC2)c2ccc(C(=O)NS(=O)(=O)C(C)C)cc21 (stereo not shown) | 6.30 to 9.00 | 6.30 to 9.00 | – | –
16 | CCn1ncc(C(=O)N2CCN(C)CC2)c1C1=Cc2cc(OC)ccc2-c2c(C3CCCCC3)c3ccc(C(=O)NS(=O)(=O)N4CCCC4)cc3n2C1 | 6.30 to 9.00 | 6.30 to 9.00 | – | –
17 | COc1ccc2c(c1)C=C(c1c(C(=O)N3C4CCC3CN(C)C4)c(C)nn1C)Cn1c-2c(C2CCCCC2)c2ccc(C(=O)NS(=O)(=O)C(C)C)cc21 | – | – | 6.30 to 9.00 | 6.30 to 9.00
